The conditions of series [1]: artificial membrane.
Description: Affinity to immobilized artificial membrane by reversed phase HPLC
The nature of series [2]: physchem. The settings on record: phosphate buffer, pH 5.
Description: Solubility in phosphate buffer at pH 5.0
A short description of series [3]: physchem. The note with it: phosphate buffer, pH 7.4.
Description: Solubility in phosphate buffer at pH 7.4
The nature of series [4]: physchem. The note with it: phosphate buffer, pH 7.5.
Description: Lipophilicity in phosphate buffer at pH 7.5
In series [5] the test system is Macrophage. Nature of the series: Inhibition of SP-A degradation in rabbit alveolar macrophages. The note with it: Oryctolagus cuniculus. The series is classed as functional, cell-based.
The subject of series [6] is Macrophage. Briefly: Effect on rabbit alveolar macrophages assessed as reduction in viability at 50 uM by trypan blue exclusion. The series is classed as functional, cell-based. The settings on record: Oryctolagus cuniculus.

≈ marks a conversion by molar mass, not a printed value. Calls of active or inactive are those of the source. The rule behind the calls is not given here.

As for `CCCCc1oc2ccccc2c1C(=O)c1cc(I)c(OCCN(C(C)C)C(C)C)c(I)c1`, in series [1], the “logD IAM” value is on record as 4.58. In addition, the solubility was 230 µM (≈ 155 µg/mL) in series [2] and 14 µM (≈ 9.43 µg/mL) in series [3]. For the same compound, the logD in series [4] was found to be 8.74.

Consider `CCCCc1oc2ccccc2c1C(=O)c1cc(I)c(OCCN(C)C)c(I)c1`, for which the “logD IAM” value in series [1] worked out at 3.64. Besides, the solubility in series [2] was found to be 2210 µM (≈ 1360 µg/mL); in series [3], 51 µM (≈ 31.5 µg/mL). Moreover, the logD in series [4] was 7.15.

In the case of `CCCCc1oc2ccccc2c1C(=O)c1cc(I)c(OCCN2CCCCC2)c(I)c1`, the result in series [5] was Active. The “logD IAM” value in series [1] amounted to 4.28. The solubility in series [2] is 2220 µM (≈ 1460 µg/mL); in series [3], 23 µM (≈ 15.1 µg/mL). This compound also came in with a logD in series [4] of 8.04.

In the case of `CCCCc1oc2ccccc2c1C(=O)c1cc(I)c(OCCCN(C)C)c(I)c1`, the result in series [6] and in series [5] was Active. Besides, the “logD IAM” value in series [1] is given as 3.56. The solubility in series [2] amounted to 1040 µM (≈ 657 µg/mL); in series [3] it was 212 µM (≈ 134 µg/mL). In series [4], the logD is 7.98.

For the compound `CCCCc1oc2ccccc2c1C(=O)c1cc(I)c(OCCN2CCOCC2)c(I)c1`, the “logD IAM” value in series [1] is listed as 3.36. The solubility was 170 µM (≈ 112 µg/mL) in series [2] and 15 µM (≈ 9.89 µg/mL) in series [3]. Moreover, the logD in series [4] is 6.15.

As to `CCCCc1oc2ccccc2c1C(=O)c1cc(I)c(OCCN2CCCC2)c(I)c1`, the result in series [6] and in series [5] was Active. The “logD IAM” value in series [1] was found to be 4.23. Besides, the solubility in series [2] came to 1860 µM (≈ 1200 µg/mL); in series [3], 49 µM (≈ 31.5 µg/mL). The logD in series [4] stood at 7.82.

For the origin of these results see ChEMBL document CHEMBL1147205 (Eur J Med Chem, 2007).
